Data reported in US10709783B2, “Neutron capture therapy system for eliminating amyloid β-protein” (NEUBORON MEDTECH LTD., priority 2015, dated 2020).
Like-named read-outs stand apart in the source and are kept apart here.

What was measured:
[1] = system: amyloid β-protein deposition plaques; experiment: Micro-PET scan of brain uptake of ^11C-labelled compound in SAMP8 model mice and control mice; format: in vivo
Method: (§1) SAMP8 (senescence accelerated mouse prone 8) mice are the most common animal model of AD (Alzheimer's disease), in its brain there are a large number of amyloid deposition plaque. In this example, SAMP8 mice were used as model mice, and the normal mice were used as the control mice. Both the model mice and the control mice were 10 months old. The two mice were injected with 6-borono-2-(4-methylaminophenyl)benzothiazole containing ^11C labeling, and the Micro-PET scan is used to study whether 6-borono-2-(4-methylaminophenyl)benzothiazole and amyloid β-protein have specific binding properties. Model mice and control mice weighing 31.5±0.3 g were selected, 31.0±0.6 μCi of ^11C labelled 6-borono-2-(4-methylaminophenyl)benzothiazole were injected thereto, and Micro-PET of Model INVEON from Siemens were used for scan, where the scanning window was 350-650 KeV.
(§2) It is well known to those skilled in the art that the major cause of Alzheimer's disease is that the amyloid β-protein deposition plaques accumulate in the cerebral cortex and hippocampus of the brain. In this example, Micro-PET scanned and compared the brains of the model and control mice using PMOD software. And the absorption of radioactive 6-borono-2-(4-methylaminophenyl)benzothiazole in the cerebral cortex and hippocampus of SAMP8 model mice and control mice was determined, to further illustrate that the compound is capable of specifically binding to amyloid β-protein deposition plaques.

[2] = as above; format: in vivo; conditions: mouse, 31 μCi; for tissue uptake at 5 min: 5 min after injection; for tissue uptake at 15 min: 15 min after injection; for tissue uptake at 25 min: 25 min after injection; for tissue uptake at 35 min: 35 min after injection
Method: as §1, §2

[3] = cerebral cortex, other: injected (kind of injection not stated), SAMP8 model mice, read-out: Cerebral cortex uptake of radiopharmaceuticals, Model mice
[4] = cerebral cortex, other: injected (kind of injection not stated), normal control mice, read-out: Cerebral cortex uptake of radiopharmaceuticals, Control mice
[5] = hippocampus, other: injection (kind of injection not stated), SAMP8 model mice, read-out: hippocampus uptake of radiopharmaceuticals, Model mice
[6] = hippocampus, other: injection (kind of injection not stated), normal control mice, read-out: hippocampus uptake of radiopharmaceuticals, Control mice

CNc1ccc(-c2nc3ccc(B(O)O)cc3s2)cc1 [6-borono-2-(4-methylaminophenyl)benzothiazole]
Cerebral cortex uptake Ratio (model mice/control mice) ([1]; 5 min after injection): 1.9 | hippocampus uptake Ratio (model mice/control mice) ([1]; 5 min after injection): 1.9 | Cerebral cortex uptake Ratio (model mice/control mice) ([1]; 15 min after injection): 1.9 | hippocampus uptake Ratio (model mice/control mice) ([1]; 15 min after injection): 2.3 | Cerebral cortex uptake Ratio (model mice/control mice) ([1]; 25 min after injection): 2.4 | hippocampus uptake Ratio (model mice/control mice) ([1]; 25 min after injection): 3.2 | brain radiopharmaceutical absorption in PET image (FIG. 4), SAMP8 model mouse relative to control mice ([1]; 30 min after injection): accumulated a large amount of radiopharmaceuticals | Cerebral cortex uptake Ratio (model mice/control mice) ([1]; 35 min after injection): 2.7 | hippocampus uptake Ratio (model mice/control mice) ([1]; 35 min after injection): 3.2 | tissue uptake at 5 min [2, 3]: 3.03 %ID/g | tissue uptake at 15 min [2, 3]: 2.88 %ID/g | tissue uptake at 25 min [2, 3]: 2.79 %ID/g | tissue uptake at 35 min [2, 3]: 2.68 %ID/g | tissue uptake at 5 min [2, 4]: 1.61 %ID/g | tissue uptake at 15 min [2, 4]: 1.48 %ID/g | tissue uptake at 25 min [2, 4]: 1.17 %ID/g | tissue uptake at 35 min [2, 4]: 0.99 %ID/g | tissue uptake at 5 min [2, 5]: 3.44 %ID/g | tissue uptake at 15 min [2, 5]: 3.5 %ID/g | tissue uptake at 25 min [2, 5]: 3.45 %ID/g | tissue uptake at 35 min [2, 5]: 3.27 %ID/g | tissue uptake at 5 min [2, 6]: 1.8 %ID/g | tissue uptake at 15 min [2, 6]: 1.49 %ID/g | tissue uptake at 25 min [2, 6]: 1.09 %ID/g | tissue uptake at 35 min [2, 6]: 1.01 %ID/g
